Experiment in all cases: NCI anticancer screen, dose series, 48 h
The subject of assay [1] is DMS-114.
Assay [2] has as its system HCC 2998.
Assay [3] has as its system K562.
The test system of assay [4] is UO-31.
Assay [5] concerns M14.
Assay [6] has as its system SF-295.
Assay [7] deals with SK-OV-3.
The subject of assay [8] is SK-MEL-2.
In assay [9] the test system is OVCAR-4.
The subject of assay [10] is SF-539.
The test system of assay [11] is CAKI-1.
Assay [12] relates to UACC-257.
Assay [13] concerns LXFL 529.
Assay [14] relates to KM12.
Assay [15] concerns NCI-H460.
Assay [16] deals with 786-0.
The test system of assay [17] is Malme-3M.
Assay [18] has as its system UACC-62.
The subject of assay [19] is HL-60.

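These data come from cells grown in 96-well plates and exposed to compound for 48 hours at five concentrations. Abbreviation: GI50, concentration required for 50% inhibition of growth.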 Activity calls are given as the source filed them. No stated cut-off is given here; in the data, active = GI50 up to about 1.1 µM and inactive = higher.

On to `N#Cc1c(C(N)=O)ncn1Cc1ccccc1`, for which the GI50 in [1], in assay [2], in assay [3], in assay [4], in assay [5] and in assay [6] was > 100 µM (inactive) in each case. The GI50 in [7], in assay [8], in assay [9], in [10], in assay [11] and in assay [12] was > 100 µM (inactive) each time. In addition, the GI50 in assay [13], in [14], in [15], in assay [16], in assay [17] and in [18] was > 100 µM (inactive) each time. In addition, the GI50 in assay [19] was > 100 µM (inactive).

`CCOC(=O)CCC(NC(=O)c1ccc(/N=C/c2nc3ccccc3nc2-c2ccccc2)cc1)C(=O)OCC` (stereo unspecified): the GI50 in assay [1] is > 100 µM (inactive); in assay [2], > 100 µM (inactive); in [3] it was > 100 µM (inactive); in assay [4] it was > 100 µM (inactive); in assay [5] it was 82 µM (inactive); in assay [6], > 100 µM (inactive). For the same compound, the GI50 in [7], in assay [8], in [9], in [10], in [11] and in assay [12] was > 100 µM (inactive) throughout. Moreover, the GI50 in assay [13], in assay [14], in assay [15], in assay [16], in assay [17] and in assay [18] was > 100 µM (inactive) throughout. The GI50 in assay [19] was > 100 µM (inactive).

Take `CC(C)N(C(=O)C12C3C4C5C3C1(C#N)C5C42)C(C)C` (stereo unspecified): the GI50 in [1], in assay [2], in [3], in [4], in [5] and in assay [6] was > 100 µM (inactive) each time. For the same compound, the GI50 in [7], in [8], in assay [9], in assay [10], in assay [11] and in assay [12] was > 100 µM (inactive) throughout. Moreover, the GI50 in assay [13], in assay [14], in [15], in [16], in assay [17] and in assay [18] was > 100 µM (inactive) each time. Moreover, the GI50 in assay [19] is > 100 µM (inactive).

`CCC(=O)OC1CCn2c1nc1c2C(=O)C(C)=C(NC(C)=O)C1=O` (stereo unspecified): the GI50 in assay [1] is 0.425 µM (active); in [2] it was 2.31 µM (inactive); in assay [3], 1.87 µM (inactive); in assay [4] it was 2.22 µM (inactive); in [5], 1.89 µM (inactive); in assay [6], 2.23 µM (inactive). The GI50 in assay [7] was 3.87 µM (inactive); in [8], 1.89 µM (inactive); in assay [9] it was 0.198 µM (active); in [10] it was 1.75 µM (inactive); in [11] it was 1.92 µM (inactive); in [12], 1.69 µM (inactive). Also, the GI50 in assay [13] is 1.41 µM (inactive); in assay [14], 1.92 µM (inactive); in [15] it was 3.22 µM (inactive); in assay [16] it was 3.48 µM (inactive); in [17] it was 1.61 µM (inactive); in assay [18] it was 1.93 µM (inactive). For the same compound, the GI50 in [19] was 0.796 µM (active).
